Test results published in publication PMC10253456, “Investigating the Contribution of Major Drug-Metabolising Enzymes to Possum-Specific Fertility Control” (International Journal of Molecular Sciences, 2023).
Read-outs that look alike come from different tables or passages of the source.

Columns and labels:
CYP3A [1] = conditions: avian; for % of control (catalytic activity at 2-fold IC50) / Catalytic activity at 2-fold IC50: compound at estimated 2-fold IC50 (5 µM where none reported)
Method: (§1) Possums were collected from the Otago Peninsula (Dunedin) and the Okuti Valley, Banks Peninsula (Christchurch) in New Zealand in collaboration with the Otago Peninsula Biodiversity Group and Manaaki Whenua-Landcare Research, respectively. […] Possums were caged and humanely killed by a blow to the head, and the livers were harvested, snap-frozen in liquid nitrogen, and stored in a freezer at −80 °C until the preparation of microsomal fractions. […] Mice were euthanised by carbon dioxide inhalation and the livers were removed and microsomes prepared. […] The livers from avian species (mallards and a swan) were kindly donated by a local bird hunting group based in Dunedin, New Zealand. The livers from avian species were treated similarly to those mentioned above for the possum samples.
(§2) Microsomal preparation was carried out as previously described [76]. […] All procedures were performed at 0–4 °C. The liver samples were minced and homogenised in Buffer A (0.1 M Tris, 0.1 M potassium chloride, 1 mM EDTA, and 20 μM butylated hydroxytoluene, at pH = 7.4) using the Teflon-glass homogeniser (5–6 vertical passes). The samples were centrifuged at 10,000× g for 20 min. The supernatant was then transferred into another set of centrifuge tubes and spun at 100,000× g for 60 min. The pellet was resuspended in Buffer B (0.1 M potassium pyrophosphate, 1 mM EDTA, and 20 μM butylated hydroxytoluene, at pH = 7.4), homogenised, and recentrifuged at 100,000× g for 60 min. Finally, the pellet was homogenised in 1–2 mL of Buffer C (10 mM Tris-HCl, 1 mM EDTA, and 4% glycerol (v/v)), and stored at −80 °C until use. The protein concentration of the microsomes was determined using the bicinchoninic acid (BCA) method [77].
(§3) CYP3A catalytic activity was determined using the erythromycin N-demethylation activity assay, as described [78]. The reaction mixture (final volume of 1 mL and final protein concentration of 1 mg) contained 500 µL of microsomes in 0.1 M phosphate buffer (pH 7.4) and 400 µL of erythromycin buffer (0.45 mM), and 50 µL of the test compound was pre-warmed at 37 °C for 2 min. The reaction was initiated with 50 µL of 2.5 mM nicotinamide adenine dinucleotide phosphate (NADP^+) and incubated for 30 min at 37 °C. […] The tubes were vortexed and left for 5 min (at room temperature), and then 330 µL of saturated barium hydroxide was added. The tubes were further vortexed and left for 5 min (at room temperature). The tubes were then centrifuged at 1800× g for 10 min. To 830 µL of the supernatant, 330 µL of Nash reagent (30% (w/v) ammonium acetate, 0.4% (v/v) acetylacetone) was added and further incubated for 30 min at 60 °C. The blank tube contained 330 µL of Nash reagent and 830 µL of Milli-Q water. […] The CYP3A activities were determined in nmol/mg/min using standard curve data. Results presented are the mean ± SEM of 3 independent experiments performed in duplicate unless otherwise stated.

CYP3A [2] = assay: CYP3A catalytic activity (erythromycin N-demethylation) in pooled human liver microsomes; conditions: for % of control (catalytic activity at 2-fold IC50) / Catalytic activity at 2-fold IC50: compound at estimated 2-fold IC50 (5 µM where none reported); for activity at 30 min: human, pH 7.4, probe erythromycin, % of control (catalytic activity at IC50), compound at estimated IC50 (1 µM where none reported)
Method: as §3

CYP3A [3] = assay: CYP3A catalytic activity (erythromycin N-demethylation) in possum liver microsomes; conditions: for Percent control catalytic activity at estimated IC50 / Percent control catalytic activity at estimated 2-fold IC50: possum liver microsomes, initial screen n=1; for Percent control catalytic activity at estimated IC50: compounds without reported IC50 at 1 µM; for Percent control catalytic activity at estimated 2-fold IC50: compounds without reported IC50 at 5 µM; for inhibition of CYP3A catalytic activities at higher concentration: 10 µM; for % of control (catalytic activity at 2-fold IC50) / Catalytic activity at 2-fold IC50: compound at estimated 2-fold IC50 (5 µM where none reported); for reduced catalytic activity of possum CYP3A, % of the control: mainly at 5 µM or an estimated 2-fold IC50, not significantly different
Method: as §1, §2, §3

CYP3A [4] = assay: CYP3A catalytic activity (erythromycin N-demethylation) in mouse liver microsomes; conditions: for Percent control catalytic activity at estimated IC50 / Percent control catalytic activity at estimated 2-fold IC50: mouse liver microsomes, initial screen n=1; for Percent control catalytic activity at estimated IC50: compounds without reported IC50 at 1 µM; for Percent control catalytic activity at estimated 2-fold IC50: compounds without reported IC50 at 5 µM; for inhibition of CYP3A catalytic activities at higher concentration: 10 µM; for % of control (catalytic activity at 2-fold IC50) / Catalytic activity at 2-fold IC50: compound at estimated 2-fold IC50 (5 µM where none reported)
Method: as §1, §2, §3

UGT2B [5] = assay: p-nitrophenol glucuronidation activity in pooled human liver microsomes; conditions: pooled human liver microsomes
UGT2B [6] = assay: p-nitrophenol glucuronidation activity in possum liver microsomes; type: biochemical, possum (Trichosurus vulpecula); conditions: for Glucuronidation Activities / Percent of Control: p-nitrophenol 0.625 mM
UGT2B [7] = assay: p-nitrophenol glucuronidation activity in mouse liver microsomes; conditions: mouse
UGT2B [8] = conditions: avian
[9] = at estimated IC50 and 2-fold IC50 values
[10] = compound at estimated 2-fold IC50

Row | Compound | % of control (catalytic activity at 2-fold IC50) (CYP3A [1]) | Catalytic activity at 2-fold IC50 (CYP3A [1]) [nmol/mg/min] | % of control (catalytic activity at 2-fold IC50) (CYP3A [2]) | Catalytic activity at 2-fold IC50 (CYP3A [2]) [nmol/mg/min] | Percent control catalytic activity at estimated IC50 (CYP3A [3]) [percent control] | Percent control catalytic activity at estimated 2-fold IC50 (CYP3A [3]) [percent control] | inhibition of CYP3A catalytic activities at higher concentration (CYP3A [3]; possum) | % of control (catalytic activity at 2-fold IC50) (CYP3A [3]; possum) | Catalytic activity at 2-fold IC50 (CYP3A [3]; possum) [nmol/mg/min] | reduced catalytic activity of possum CYP3A, % of the control (CYP3A [3]; possum) | Percent control catalytic activity at estimated IC50 (CYP3A [4]) [percent control] | Percent control catalytic activity at estimated 2-fold IC50 (CYP3A [4]) [percent control] | inhibition of CYP3A catalytic activities at higher concentration (CYP3A [4]; mouse) | % of control (catalytic activity at 2-fold IC50) (CYP3A [4]; mouse) | Catalytic activity at 2-fold IC50 (CYP3A [4]; mouse) [nmol/mg/min] | also measured
1 | O=C1c2ccccc2C(=O)c2c1ccc(O)c2O [Alizarin] | 94 % of control | 0.30 ± 0.04 | 98 % of control | 0.57 | 70 | 77 | did not show any significant inhibition | 84 % of control | 0.27 ± 0.01 | ~ 35 % of the control | 91 | 89 | did not show any significant inhibition | 96 % of control | 0.57 ± 0.06 | 
2 | COc1cc(C2Oc3ccc([C@H]4Oc5cc(O)cc(O)c5C(=O)[C@@H]4O)cc3OC2CO)ccc1O (some centres unmarked) [Isosilybin] |  |  |  |  | 73 |  |  |  |  |  | 71 |  |  |  |  | p-nitrophenol glucuronidation (UGT2B) activity, % of the control (UGT2B [5]; [9]): no significant inhibition; % of control (UGT2B4 catalytic activity at 2-fold IC50) (UGT2B [5]; [10]): 107 % of control; UGT2B4 catalytic activity at 2-fold IC50 (UGT2B [5]; [10]): 3.15 µmol/mg/min; % of control (UGT2B4 catalytic activity at IC50) (UGT2B [5]; compound at estimated IC50): 93 % of control; inhibitory potential on glucuronidation activity with varying concentrations of p-nitrophenol (substrate) (UGT2B [6]; Table 1): no significant changes compared to their respective control activities; p-nitrophenol glucuronidation (UGT2B) activity, % of the control (UGT2B [6]; [9]): > 65 % of the control; % of control (UGT2B4 catalytic activity at 2-fold IC50) (UGT2B [6]; [10]): 65 % of control; UGT2B4 catalytic activity at 2-fold IC50 (UGT2B [6]; [10]): 2.21 ± 0.17 µmol/mg/min; % of control (UGT2B4 catalytic activity at IC50) (UGT2B [6]; compound at estimated IC50): 78 % of control; Glucuronidation Activities (UGT2B [6]; isosilybin 100 µM): 0.12 ± 0.09 µmol/mg/min; Percent of Control (UGT2B [6]; isosilybin 100 µM): 63% of Control; Glucuronidation Activities (UGT2B [6]; isosilybin 200 µM): 0.13 ± 0.05 µmol/mg/min; Percent of Control (UGT2B [6]; isosilybin 200 µM): 67% of Control; % of control (UGT2B4 catalytic activity at 2-fold IC50) (UGT2B [7]; [10]): 80 % of control; UGT2B4 catalytic activity at 2-fold IC50 (UGT2B [7]; [10]): 1.55 ± 0.19 µmol/mg/min; % of control (UGT2B4 catalytic activity at IC50) (UGT2B [7]; compound at estimated IC50): 96 % of control; % of control (UGT2B4 catalytic activity at 2-fold IC50) (UGT2B [8]; [10]): 67 % of control; UGT2B4 catalytic activity at 2-fold IC50 (UGT2B [8]; [10]): 0.28 ± 0.11 µmol/mg/min; % of control (UGT2B4 catalytic activity at IC50) (UGT2B [8]; compound at estimated IC50): 101 % of control
3 | C[C@]12CC[C@H](O)CC1=CC[C@@H]1[C@@H]2CC[C@]2(C)C(n3cnc4ccccc43)=CC[C@@H]12 [Galeterone] |  | 0.36 ± 0.04 | 114 % of control | 0.61 | 76 | 80 | did not show any significant inhibition | 83 % of control | 0.32 ± 0.02 | ~ 35 % of the control | 88 | 86 | did not show any significant inhibition | 105 % of control | 0.63 ± 0.10 | activity at 30 min (CYP3A [2]): 99%
4 | CCc1oc2ccccc2c1C(=O)c1cc(Br)c(O)c(Br)c1 [Benzbromarone] | 104 % of control | 0.34 ± 0.01 | 113 % of control | 0.37 | 83 | 78 | did not show any significant inhibition | 80 % of control | 0.26 ± 0.02 | ~ 35 % of the control | 97 | 96 | did not show any significant inhibition | 97 % of control | 0.57 ± 0.08 | 
5 | COc1ccc(/C=C/c2cc(O)cc(O)c2)cc1O [Rhapontigenin] | 101 % of control | 0.30 ± 0.03 | 110 % of control | 0.53 | 103 | 103 |  | 124 % of control | 0.40 ± 0.03 |  | 116 | 157 |  | 144 % of control | 0.52 ± 0.05 | activity at 30 min (CYP3A [2]): 106%
6 | C/C1=C/CC[C@H](C)C(=O)C[C@@H](C(C)C)C(=O)C1 [Curdione] | 99 % of control | 0.41 ± 0.04 |  |  | 92 | 103 |  | 99 % of control | 0.37 ± 0.03 |  | 143 | 134 |  | 94 % of control | 0.38 ± 0.05 | % of control (catalytic activity at IC50) (CYP3A [1]; compound at estimated IC50 (1 µM where none reported)): 97 % of control; % of control (catalytic activity at IC50) (CYP3A [3]; possum, compound at estimated IC50 (1 µM where none reported)): 91 % of control; % of control (catalytic activity at IC50) (CYP3A [4]; mouse, compound at estimated IC50 (1 µM where none reported)): 114 % of control
7 | C=C[C@@H]1C2=CCOC(=O)C2=CO[C@H]1O[C@@H]1O[C@H](CO)[C@@H](O)[C@H](O)[C@H]1O [Gentiopicroside] | 114 % of control | 0.32 ± 0.03 | 122 % of control | 0.54 | 98 | 83 | did not show any significant inhibition | 82 % of control | 0.29 ± 0.02 | ~ 35 % of the control | 92 | 85 | did not show any significant inhibition | 97 % of control | 0.56 ± 0.12 | 
